Test systems include BT-549 breast; SF-268 CNS; MOLT-4 leukemia; MDA-MB-435; A549 NSCLC; MCF7 breast; ACHN renal; OVCAR-3 ovarian; COLO 205 colon; A498 renal.
Common to all, as to assay: DTP human tumour cell line panel, 48 h

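Dose response: 5 concentrations. Exposure: 48 h. Format: 96-well plates. Endpoint: linear interpolation; highest concentration if not reached. Here, GI50 denotes the concentration required for 50% inhibition of growth. At the TGI there is no net growth.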

The TGI is the concentration giving total growth inhibition. Low readings indicate greater sensitivity of the cells, high ones lower sensitivity of the cells. Usually GI50 stands for the concentration that inhibits growth by half.

As for `COC(=O)C1=Nc2c(C)nn(-c3ccccc3)c2N=C(c2ccc(C)cc2)C1`, the concentration for total growth inhibition (TGI) in the test on BT-549 breast, in the test with SF-268 CNS, with MOLT-4 leukemia, in the test on MDA-MB-435, in the test with A549 NSCLC and in the test with MCF7 breast was greater than 10 µM each time. Further, the TGI in the test with ACHN renal, in the test with OVCAR-3 ovarian and in the test with COLO 205 colon was greater than 10 µM throughout.
With `CC(=O)OC1CC2CCC1(C)C2(C)C` (stereo unspecified), the TGI with SF-268 CNS, in the test with MOLT-4 leukemia, in the test on MDA-MB-435, with MCF7 breast, in the test with ACHN renal and with A498 renal was greater than 100 µM throughout. For the same molecule, the TGI with OVCAR-3 ovarian and in the test with COLO 205 colon was greater than 100 µM in each case.
As for `COc1ccc2[nH]cc(-c3nc(-c4cn(C)c5ccncc45)cs3)c2c1`, the GI50 in the test on BT-549 breast is 1.79 µM; in the test on SF-268 CNS, 1.91 µM; in the test with MDA-MB-435, 1.71 µM; in the test with A549 NSCLC, 1.79 µM; with MCF7 breast it was 1.81 µM; with ACHN renal, 1.82 µM. The GI50 with A498 renal is 8.86 µM; in the test on OVCAR-3 ovarian it was 1.85 µM. In addition, the total growth inhibition concentration (TGI) worked out at 3.4 µM with BT-549 breast; 3.61 µM in the test on SF-268 CNS; 3.22 µM in the test with MDA-MB-435; 3.43 µM with A549 NSCLC; 3.65 µM with MCF7 breast; 3.21 µM with ACHN renal. Further, the total growth inhibition concentration (TGI) was 21.5 µM with A498 renal and 3.41 µM with OVCAR-3 ovarian.
For the molecule `O=Cc1ccc(-c2ccc(-c3ccc(C=O)s3)o2)s1`, the concentration for total growth inhibition (TGI) with BT-549 breast, in the test with SF-268 CNS, in the test with MOLT-4 leukemia, in the test with MDA-MB-435, in the test with A549 NSCLC and in the test with ACHN renal was greater than 100 µM throughout. Moreover, the TGI stood at 0.732 µM in the test with A498 renal, 5.89 µM in the test on OVCAR-3 ovarian and 37 µM in the test with COLO 205 colon.
Turning to `COc1ccc2c(c1)CC[C@@H]1[C@@H]2CC[C@@]2(C)[C@H]1CC1(CCCCC1)[C@@H]2O`, the GI50 in the test with SF-268 CNS was 12 µM; in the test on MDA-MB-435 it was 16.5 µM; in the test on A549 NSCLC, 5.58 µM; in the test with MCF7 breast, 18.4 µM; in the test with ACHN renal it was 14.7 µM; with A498 renal it was 16.7 µM. For the same molecule, the GI50 is 15.1 µM with OVCAR-3 ovarian and 7.35 µM in the test on COLO 205 colon. Also, the TGI with SF-268 CNS came to 26.6 µM; with MDA-MB-435, 33.8 µM; in the test with A549 NSCLC, 26.8 µM; in the test on MCF7 breast, 37.5 µM; with ACHN renal, 28.2 µM; in the test with A498 renal, 32 µM. Further, the TGI with OVCAR-3 ovarian was 31.1 µM; with COLO 205 colon, 26 µM.
For the molecule `Cc1nn(C(=O)c2ccc(Cl)cc2)c2c1C(c1ccc([N+](=O)[O-])cc1)SC(N)=N2` (stereo unspecified), the concentration for total growth inhibition (TGI) with BT-549 breast, in the test on SF-268 CNS, in the test on MOLT-4 leukemia, in the test with MDA-MB-435, in the test with A549 NSCLC and in the test with MCF7 breast was greater than 10 µM each time. Further, the total growth inhibition concentration (TGI) with ACHN renal, with OVCAR-3 ovarian and in the test with COLO 205 colon was greater than 10 µM in each case.
Regarding `CN(C)CCNc1ccc([N+](=O)[O-])c2nc3ccccc3c(N)c12`, the total growth inhibition concentration (TGI) in the test on SF-268 CNS is 3.94 µM; in the test with MOLT-4 leukemia, 4.74 µM; in the test with MDA-MB-435 it was 2.61 µM; with A549 NSCLC, 4.23 µM; in the test with MCF7 breast, greater than 10 µM; in the test on ACHN renal, 3.51 µM. The figures for the TGI with OVCAR-3 ovarian and in the test on COLO 205 colon were 3.32 µM and 1.84 µM, respectively.
Consider `O=C1Nc2ccccc2C1Cc1ccccc1` (stereo unspecified), for which the TGI in the test on SF-268 CNS, in the test with MOLT-4 leukemia, in the test on MDA-MB-435, with A549 NSCLC, in the test with MCF7 breast and in the test on ACHN renal was greater than 100 µM in each case. Also, the TGI in the test with A498 renal, in the test with OVCAR-3 ovarian and in the test on COLO 205 colon was greater than 100 µM throughout.
For `COc1cnc2c(c1)C(=O)c1c-2n(CCCn2ccnc2)c(=O)c2cc(Cl)ccc12`, the GI50 is 0.146 µM with BT-549 breast; 0.0343 µM in the test on SF-268 CNS; 0.145 µM with MDA-MB-435; 0.0663 µM in the test with A549 NSCLC; less than 0.01 µM with MCF7 breast; 0.0301 µM in the test on ACHN renal. For the same molecule, the results for the GI50 with A498 renal, with OVCAR-3 ovarian and in the test on COLO 205 colon were 0.113 µM, 0.129 µM and 0.0332 µM, respectively. The concentration for total growth inhibition (TGI) is greater than 100 µM in the test on BT-549 breast; greater than 100 µM in the test with SF-268 CNS; 1.29 µM in the test on MDA-MB-435; greater than 100 µM in the test with A549 NSCLC; 61.4 µM with ACHN renal; 0.557 µM in the test on A498 renal. Moreover, the TGI in the test with OVCAR-3 ovarian is 38.8 µM; in the test with COLO 205 colon, 2.09 µM.
`CC(C)C(=O)N[C@@H](C)C(=O)N(Cc1ccc2ccccc2c1)N=O`: the total growth inhibition concentration (TGI) in the test with SF-268 CNS, with MOLT-4 leukemia, in the test on A549 NSCLC, in the test with ACHN renal, with A498 renal and with OVCAR-3 ovarian was greater than 100 µM each time. Further, the TGI in the test with COLO 205 colon was greater than 100 µM.
Regarding `CC(C)(C)c1ccc([I+]c2ccc(C(C)(C)C)cc2)cc1`, the GI50 in the test on SF-268 CNS was 1.93 µM; in the test with MOLT-4 leukemia, 1.96 µM; with MDA-MB-435, 0.948 µM; in the test with A549 NSCLC, 2.43 µM; in the test with MCF7 breast it was 1.35 µM; in the test with ACHN renal it was 3.25 µM. In addition, the values for the GI50 with A498 renal, in the test on OVCAR-3 ovarian and in the test with COLO 205 colon were 1.37 µM, 1.44 µM and 1.06 µM, respectively. For the same molecule, the total growth inhibition concentration (TGI) is 7.53 µM in the test on SF-268 CNS; 7.79 µM in the test with MOLT-4 leukemia; 3.01 µM in the test with MDA-MB-435; 6.65 µM with A549 NSCLC; 9.17 µM with MCF7 breast; 12.2 µM in the test with ACHN renal. The TGI in the test with A498 renal is 3.81 µM; in the test with OVCAR-3 ovarian, 6.87 µM; in the test with COLO 205 colon, 2.8 µM.
Consider `[Cu+2].[O-]c1ccc2ccccc2c1N=Nc1ccccc1.[O-]c1ccc2ccccc2c1N=Nc1ccccc1`, for which the total growth inhibition concentration (TGI) in the test with BT-549 breast, in the test on SF-268 CNS, with MOLT-4 leukemia, in the test on MDA-MB-435, with A549 NSCLC and with MCF7 breast was greater than 100 µM throughout. The total growth inhibition concentration (TGI) in the test with ACHN renal, in the test with OVCAR-3 ovarian and with COLO 205 colon was greater than 100 µM in each case. Besides, the GI50 with SF-268 CNS is greater than 100 µM.

These data come from PubChem BioAssay (NCI).
